Measurements from PMC11433764, “A Novel Compound from the Phenylsulfonylpiperazine Class: Evaluation of In Vitro Activity on Luminal Breast Cancer Cells” (Molecules, 2024).
Entries after “also recorded” stand apart in the source; their conditions may differ.

Key:
Assay type in all cases: cell-based
[1] = test system: KRT10; experiment: qPCR, KRT10 expression in MCF7; settings: vs untreated cells
Description: (§1) Total RNA was extracted using Trizol reagent (Invitrogen), according to the manufacturer’s protocol. The quality of extracted RNA was verified by the spectrophotometric readings at 260 and 280 nm (Nanodrop 1000-ThermoFisher), and the first strand of cDNA was synthesized from 1 µg of total RNA via reverse transcription using GoScript™ Reverse Transcription Mix (Promega, Madison, WI, EUA). qPCR analysis was performed using 5.0 μL of Power SYBR Green PCR Master Mix (Applied Biosystems, Carlsbad, CA, USA) and run on a StepOnePlus Systems (Applied Biosystems, Carlsbad, CA, USA) device with the following cycling parameters: 40 cycles of 95 °C for 10 s and 60 °C for 30 s. The comparative Cq was used to find the relative expression of CDH1 (E-caderina), ENTPD1 (ectonucleoside triphosphate diphosphohydrolase 1), ENTPD2 (ectonucleoside triphosphate diphosphohydrolase 2), ENTPD3 (ectonucleoside triphosphate diphosphohydrolase 3), ENTPD5 ([…]) and KRT10 (keratin 10) genes, after relative standard curve optimization. β-2-microglobulin (β2M) was used as a reference gene. The primer sequences are described in Table 3.

[2] = test system: MCF7; experiment: Clonogenic (colony formation) assay; settings: MCF7, 9.00 µM (highest concentration), 48 h
Description: MCF7 cells were seeded at a density of 500 cells per well in 6-well culture. […] The medium was removed and, after 12 days, cells were washed 3 times with 1 × Phosphate-buffered saline (PBS), fixed with formaldehyde (4% v/v) and stained with crystal violet solution (0.5% v/v). Plates were scanned using L-Pix (Loccus Biotecnologia, Cotia, SP, Brazil) to obtain the images, incubated with 300 µL of acetic acid 33% v/v, and 100 µL of this solution was transferred to 96-well plates to evaluate the absorbance at 570 nm in a microplate reader (Thermo Plate TP-Reader, ThermoFisher). The number of colonies per well was calculated in relation to the untreated cells (considered as 100% of colony formation).

[3] = test system: ENTPD5; experiment: qPCR, ENTPD5 expression in MCF7; settings: vs untreated cells
Description: as §1

[4] = test system: ENTPD2; experiment: qPCR, ENTPD2 expression in MCF7; settings: vs untreated cells
Description: as §1

[5] = test system: tumor cells MCF7, MDA-MB-453 and MDA-MB-231; experiment: MTT cell viability, tumor cells (stated collectively); settings: 48 h, MTT; tumor cells stated collectively
Description: (§2) Four different breast cells lines were used in this study: MCF-10A (non-tumorigenic), MCF7 (ER+ BC), MDA-MB453 (HER2+ BC) and MDA-MB231 (TNBC). All lineages were obtained from the American Type Culture Collection (ATCC; Manassas, VA, USA) and maintained at a temperature of 37 °C according to the supplier’s recommendations. Only MDA-MB231 cells were not kept in an atmosphere of 5% CO2. MCF-10A was grown in Dulbecco’s Modified Eagle’s Medium (DMEM F12, Gibco, ThermoFisher Scientific, Waltham, MA, USA) supplemented with 20 ng/mL epidermal growth factor (Gibco, ThermoFisher Scientific, Waltham, MA, USA), 0.5 μg/mL hydrocortisone (Sigma-Aldrich, Sigma-Aldrich, St. Louis, MO, USA) and 10 μg/mL insulin (Gibco, ThermoFisher Scientific, Waltham, MA, USA). MCF7 was cultivated in Roswell Park Memorial Institute Medium (RPMI-1640, Gibco, ThermoFisher Scientific, Waltham, MA, USA), MDA-MB453 in IMDM and MDA-MB231 in Leibovitz’s medium (L-15, Gibco, ThermoFisher Scientific, Waltham, MA, USA). All media were supplemented with 10% fetal bovine serum (FBS, Gibco, ThermoFisher Scientific, Waltham, MA, USA) and 50 µg/mL of gentamicin (Cultilab, Campinas, SP, Brazil). The cells were confirmed to be free of mycoplasma and passaged using a 0.25% trypsin-EDTA solution when confluency reached 80–90%.
(§3) Cell viability was determined by spectrophotometric quantification of MTT (3-[4,5-dimethyl-thiazol-2-yl]-2,5-diphenyltetrazolium bromide—Invitrogen. Waltham, MA, USA) reduction to formazan crystals. Cells were seeded at the density of 1 × 10^4 cells/well (MCF-10A, MDA-MB453), 1.5 × 10^4 cells/well (MDA-MB231) and 3 × 10^3 cells/well (MCF7) in 96-well culture dishes and incubated with different concentrations of the compounds (1.25, 2.5, 5, 10, 20, 40, 80 and 160 µM) for 48 h. The medium was than replaced by MTT solution (0.5 mg/mL) and plates were kept at 37 °C for 4 h. After the aspiration of the media, the formazan crystals were diluted with 100 μL of dimethyl-sulfoxide (DMSO)/well and the absorbance at 570 nm was measured using a spectrophotometer (Thermo Plate TP-Reader, Waltham, MA, USA). Cytotoxicity was calculated using the following formula: Cytotoxicity (%) = [absorbance of cells treated with the compounds/absorbance of cells treated with DMSO) × 100]. The IC50 was determined for each compound and was defined as the concentration required to inhibit 50% of cell growth, compared to the control sample (cells treated with DMSO 0.05%).
(§4) Data were presented as the mean ± standard deviation (SD) and analyzed using GraphPad Prism 9.0 software (GraphPad Software Inc., La Jolla, CA, USA). All data were assayed in triplicate. Statistical analysis was performed using one-way ANOVA, Tukey´s HSD post hoc test and Student’s t-test. The IC50 was calculated using non-linear regression and the selectivity index (SI) was calculated by the ratio between the IC50 values corresponding to the non-tumor cell lineage (MCF-10A) and the IC50 values corresponding to the BC cell lines. Statistical significance was accepted at p values < 0.05.

[6] = test system: ENTPD1; experiment: qPCR, ENTPD1 expression in MCF7; settings: vs untreated cells
Description: as §1

[7] = test system: MDA-MB-453; experiment: MTT cell viability, MDA-MB-453
Description: as §2, §3, §4

[8] = test system: MDA-MB-231; experiment: MTT cell viability, MDA-MB-231
Description: as §2, §3, §4

IC50 [5]: < 50 µM
SMILES: O=C(c1ccc(-n2cnnn2)cc1)N1CCN(S(=O)(=O)c2ccc(Cl)cc2)CC1 [Compound 3, (4-(1H-tetrazol-1-yl)phenyl)(4-((4-chlorophenyl)sulfonyl)piperazin-1-yl)methanone]
Fold Change KRT10 mRNA ([1]; MCF7, 1.125 µM): 1.309
Fold Change KRT10 mRNA ([1]; MCF7, 2.25 µM): 1.913
Fold Change KRT10 mRNA ([1]; MCF7, 4.5 µM): 1.383
Colony formation [2]: significantly reduced colony formation; also recorded: Colony formation was inhibited
Fold Change ENTPD5 mRNA ([3]; MCF7, 1.125 µM): 2.046
Fold Change ENTPD5 mRNA ([3]; MCF7, 2.25 µM): 1.437
Fold Change ENTPD5 mRNA ([3]; MCF7, 4.5 µM): 1.306
Fold Change ENTPD2 mRNA ([4]; MCF7, 1.125 µM): 1.374
Fold Change ENTPD2 mRNA ([4]; MCF7, 2.25 µM): 1.417
Fold Change ENTPD2 mRNA ([4]; MCF7, 4.5 µM): 1.109
Fold Change ENTPD1 mRNA ([6]; MCF7, 1.125 µM): 1.102
Fold Change ENTPD1 mRNA ([6]; MCF7, 2.25 µM): 1.331
Fold Change ENTPD1 mRNA ([6]; MCF7, 4.5 µM): 1.006
IC50 ([7]; Homo sapiens, MDA-MB-453, 48 h, MTT, 1.25–160 μM, read-out: IC50 MDA-MB-453): 80 µM
SI MDA-MB-453 ([7]; IC50 MCF10A / IC50 MDA-MB-453): >2.00
IC50 ([8]; Homo sapiens, MDA-MB-231, 48 h, MTT, 1.25–160 μM, read-out: IC50 MDA-MB-231): 83 µM
SI MDA-MB-231 ([8]; IC50 MCF10A / IC50 MDA-MB-231): >1.93
